This note sets out measurements from patent publication US8580769B2, “Treatment of obesity, metabolic syndrome, and diabetes with protein kinase C inhibitors” (The United States of America as represented by the …, priority 2011, dated 2013).

Molecules are shown by their SMILES.

One test addresses T1, recombinant PKC-ι (Homo sapiens, UniProt P41743).
T1 construct: purchased Biovision, Mountain View, Calif
T1 sequence (P41743 1-596): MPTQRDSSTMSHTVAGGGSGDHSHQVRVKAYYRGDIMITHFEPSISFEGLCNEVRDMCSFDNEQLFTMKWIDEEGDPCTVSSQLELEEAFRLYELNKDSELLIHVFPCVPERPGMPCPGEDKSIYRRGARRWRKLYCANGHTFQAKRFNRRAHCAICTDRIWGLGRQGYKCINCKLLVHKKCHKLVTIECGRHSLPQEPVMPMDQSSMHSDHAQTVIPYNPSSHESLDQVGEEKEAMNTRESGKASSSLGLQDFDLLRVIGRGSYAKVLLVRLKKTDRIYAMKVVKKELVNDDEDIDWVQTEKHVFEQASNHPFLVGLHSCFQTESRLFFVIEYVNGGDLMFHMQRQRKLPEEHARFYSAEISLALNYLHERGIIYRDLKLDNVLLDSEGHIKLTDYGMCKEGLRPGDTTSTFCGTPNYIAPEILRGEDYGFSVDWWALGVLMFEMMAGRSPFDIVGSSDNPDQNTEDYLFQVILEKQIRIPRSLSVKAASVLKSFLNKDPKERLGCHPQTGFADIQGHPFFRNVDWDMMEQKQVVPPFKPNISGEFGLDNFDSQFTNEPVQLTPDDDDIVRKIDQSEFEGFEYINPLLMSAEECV
Kind of test: recombinant PKC-ι activity assay (PIP3-activated). The test is classed as biochemical. As for the experimental part:
aPKCι Assays: aPKC enzyme activity was measured as previously described (Standaert et al., J. Biol. Chem. 279:24929-24934, 2004; Sajan et al., J. Lipid Res. 50:1133-1145, 2009; Sajan et al., Diabetologia 52:1197-1207, 2009; Farese et al., J. Clin. Invest. 117:2289-2301, 2007). […] After incubation, ^32P-labeled substrate was trapped on P-81 filter paper and counted. […]

A further test concerns the target T2, PKC-ζ (Homo sapiens, UniProt Q05513).
T2 construct: purchased Biovision, Mountain View, Calif
T2 sequence (Q05513 1-592): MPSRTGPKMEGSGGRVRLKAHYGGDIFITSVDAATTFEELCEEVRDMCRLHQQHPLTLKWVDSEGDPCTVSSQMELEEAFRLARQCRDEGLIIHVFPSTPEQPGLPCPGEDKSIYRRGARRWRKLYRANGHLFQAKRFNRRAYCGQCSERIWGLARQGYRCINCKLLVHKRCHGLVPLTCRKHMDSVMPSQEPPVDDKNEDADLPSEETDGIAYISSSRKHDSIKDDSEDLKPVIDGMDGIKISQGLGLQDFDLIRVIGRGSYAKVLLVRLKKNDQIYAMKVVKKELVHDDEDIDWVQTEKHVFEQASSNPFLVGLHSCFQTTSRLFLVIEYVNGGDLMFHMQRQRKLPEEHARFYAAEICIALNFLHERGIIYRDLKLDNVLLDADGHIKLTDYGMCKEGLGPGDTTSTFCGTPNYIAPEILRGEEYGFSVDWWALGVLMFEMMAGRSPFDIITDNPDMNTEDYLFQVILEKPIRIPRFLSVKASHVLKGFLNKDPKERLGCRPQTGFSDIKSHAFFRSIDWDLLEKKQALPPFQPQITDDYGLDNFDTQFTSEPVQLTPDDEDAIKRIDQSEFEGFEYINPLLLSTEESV
Kind of test: PKC-ζ inhibition. The format is biochemical. The method, then:
For assays of recombinant PKC-ι and PKC-ζ (10 ng/assay; Biovision, Mountain View, Calif.), […] phosphatidylinositol-3,4,5-(PO4)3 (PIP3; Matreya, Pleasant Gap, Pa.) ±1 ng phosphoinositide-dependent kinase-1 (PDK1; Upstate Cell Signaling) was added to maximally activate and thus better define aPKC activity.

The test system of a further test is FoxO1. Kind of test: ser-256 phosphorylation of hepatic FoxO1 in wild type mice after a single ICAPP injection. Particulars: 1.5 mg/kg ICAPP s.c., basally and in response to insulin. The format is in vivo, mouse. The method, then: Western Analyses: Western analyses were conducted as described (Standaert et al., J. Biol. Chem. 279:24929-24934, 2004; Sajan et al., J. Lipid Res. 50:1133-1145, 2009; Sajan et al., Diabetologia 52:1197-1207, 2009; Farese et al., J. Clin. Invest. 117:2289-2301, 2007), using the following antibodies/antisera for immunodetection after resolution of lysate proteins by SDS-PAGE: rabbit polyclonal anti-IRS-1 antiserum (Upstate Cell Signaling); rabbit polyclonal anti-IRS-2 antiserum (Santa Cruz Technologies); rabbit polyclonal anti-PKC-ζ/λ antiserum (Santa Cruz Biotechnologies); rabbit polyclonal anti-PKC-ζ antiserum (gift of Dr. Todd Sacktor); mouse monoclonal anti-PKC-ι/ζ antibodies (Transduction Laboratories/BD, East Rutherford, N.J.); rabbit polyclonal anti-Akt1/2 antiserum (Upstate Cell Signaling); rabbit polyclonal anti-phospho-serine -473-Akt1/2 antiserum (New England BioLabs, Beverly, Mass.): rabbit polyclonal anti-phospho-threonine-410-[…]/-403-PKC-ι/λ antiserum (Upstate Cell Signaling); rabbit polyclonal anti-phospho-threonine-560-PKC-ζ/-555-PKC-ι/λ antiserum (Invitrogen); and anti-p65/RelA subunit of NFκB (Santa Cruz Biotechnologies). […]
Wild type mice were treated with 1.5 mg/kg ICAPP subcutaneously and after 2-30 hours, the mice were treated with 1 U/kg insulin 15 minutes before euthanasia. aPKC activity was determined as described in Example 1.

What is called IC50 is the midpoint of a concentration-inhibition curve. For `NC(=O)c1ncn([C@@H]2C[C@H](COP(=O)(O)O)[C@@H](O)[C@H]2O)c1N` [ICAPP, 1H-imidazole-4-carboxamide, 5-amino-1-[2,3-dihydroxy-4-[(phosphonooxy)methyl]cyclopentyl]-[1R-(1α,2β,3β,4α)]], the IC50 at recombinant PKC-ι (10 ng recombinant PKC-ι activated by 10 fM PIP3, in vitro) lay within 10 to 100 nM. Besides, the “inhibition of PKC-ζ” value against PKC-ζ is “not inhibited”. Moreover, the “ser-256 phosphorylation of hepatic FoxO1” value with FoxO1 is on record as “increased”.
For `O=C([O-])CC([S][Au])C(=O)[O-]` (stereo not shown) [ATM, aurothiomalate, reference compound], on recombinant PKC-ι (in vitro), the “inhibition of PIP3-activated recombinant PKC-ι” value is “did not inhibit”.
